Earlier results on two molecules are cited in patent publication US20080241292A1, “COMPOSITION AND METHOD FOR WEIGHT LOSS” (IOMEDIX DEVELOPMENT INTERNATIONAL SRL, priority 2006, published 2008).

Ends that are not written are not given here.

For series [1] the following is noted: humans.
The conditions of series [2]: exogenous administration to humans.

Regarding “Glucagon-like peptide-1 (HAEGTFTSDVSSYLEGQAAKEFIAWLVKGR; ends and bridges not checked; UniProt P01275 98-127, looked up) [GLP-1, satiety signal peptide]”, in series [1], the satiety entry is “increase satiety”.

B1: Cholecystokinin (peptide, UniProt P06307 21-115, looked up)
Cholecystokinin: QPVPPADPAGSGLQRAEEAPRRQLRVSQRTDGESRAHLGALLARYIQQARKAPSGRMSIVKNLQNLDPSHRISDRDYMGWMDFGRRSAEEYEYPS
modifications: Cholecystokinin
notes: satiety signal peptide secreted from intestinal cells in response to nutrients
Take B1: the food intake entry in series [2] was “reduction in food intake”.
